For this assay, the system named is E. faecalis MMH594 whole cells (TyrDC). The experiment in a line: Inhibition of L-dopa decarboxylation in E. faecalis whole cells. The conditions noted are these: for pEC50: E. faecalis whole cells / cultures. Format: cell-based, Enterococcus faecalis MMH594. How it is done: Thus, a library of commercially available tyrosine and phenylalanine derivatives were evaluated for decarboxylation by Enterococcus faecalis MMH594 whole cells; decarboxylation efficiency of a given tyrosine analog was used to identify favorable aromatic fragments, with high conversion indicating a favorable arene scaffold. […] To quickly assess whether the trend in native decarboxylation activity can be translated to inhibitory activity, we evaluated benzyl aminooxy compounds with similar aromatic elements as inhibitors for L-dopa decarboxylation in E. faecalis MMH594 whole cells (10 μM inhibitor); high L-dopa recovery indicated high inhibitory efficiency. […] In addition, these compounds are either commercially available or can be accessed in a two-step synthetic sequence (European Journal of Medicinal Chemistry 2016, 108, 564-576). As shown, inhibitors without a para-hydroxyphenyl motif are not effective towards L-dopa decarboxylation in whole cells (FIG. 3B). Aminooxy compounds with this structural motif can inhibit L-dopa decarboxylation in E. faecalis cultures at low concentrations.
AFMT analogs were evaluated for their inhibitory effects towards L-dopa decarboxylation using the same protocol as described above. 500 μM L-dopa was incubated anaerobically at 37° C. with E. faecalis MMH594 in the presence of 100 μM inhibitor for 18-24 h. The level of remaining L-dopa was measured by MS/MS and then normalized to the level of L-dopa from a mutant control. […] Since (S)-AFMT is the active AFMT enantiomer, the stereochemical assignments in FIG. 5 assume that the enantiomer with the higher inhibitory activity carries the […] configuration. Chiral configuration will be unambiguously determined via crystallography in the future.

pEC50: −log10 of the molar value.

For `C[C@@](Cc1ccc(O)c(O)c1)(NN)C(=O)O` [carbidopa], the “limiting L-dopa decarboxylation by E. faecalis” value (applicant's original study) is recorded as “ineffective”.

As usually defined, the pEC50 is −log10 of the EC50, conventionally taken in molar units. High values mean a low EC50, low ones a high EC50. The molecule `NOCc1ccc(O)c(F)c1` [3-fluoro-4-hydroxybenzyl aminooxy] had a pEC50 of 5.66.

Molecule `N[C@@](CF)(Cc1ccc(O)cc1)C(=O)O` [AFMT, α-fluoromethyltyrosine] had a pEC50 (Enterococcus faecalis) of 5.85.

`NOCc1ccc(O)cc1` [4-hydroxybenzyl aminooxy]: the pEC50 was 5.82.
